{"source": "paper PMC8148468", "about": "“Shikimic acid protects skin cells from UV-induced senescence through activation of the NAD+-dependent deacetylase SIRT1” (Aging (Albany NY), 2021)", "type_in_all_cases": "cell-based, human", "key": {"IL-6": {"test_system": "IL-6", "experiment": "IL-6 mRNA levels (qPCR)", "details": "UVB-irradiated HDF, SA 10, 25, 50 mM -/+ EX-527 1 μM", "experimental": "Figure 3 (A) Schematic representation of the protocol for senescence induction using UVB irradiation and study of EX527 involvement in the effect of Shikimic acid. Cells were treated with or without shikimic acid -/+ EX-527 from day 1 until day 7 after seeding, irradiated with UVB on days 2 and 5 and harvested for analysis on day 7. (B) Phase-contrast (left column) and bright field (right column) microscope images of β-Gal staining showing non-irradiated cells non-treated and treated with shikimic acid (10, 25 and 50 mM), UVB-irradiated cells non-treated and treated with shikimic acid (10, 25 and 50 mM), shikimic acid (10, 25 and 50 mM) + EX-527 1 μM and EX-527 1 μM. […] SIRT1 activity was then evaluated by analyzing acetylation of H3K9, H4K16 and p53K382 by Western blot. […]\nRNA was extracted from cell pellets using the Total RNA Purification Kit (Norgen, Canada), according to the manufacturer’s protocol. Extracted RNA was quantified using a NanoDrop® ND-1000 UV-Vis Spectrophotometer (Thermo Fisher Scientific, USA) and 300 ng of RNA were retrotranscribed to cDNA using the PrimeScriptTM RT reagent kit (Takara Bio Inc., Japan). cDNA was diluted 1/10 in ultrapure water and qPCR mix was prepared by adding cDNA (12 ng), SYBR green supermix (Bio Rad, USA), forward and reverse primers (0.2μM). […] The results were analyzed with Bio-Rad CFX Manager software. […]"}, "HDF cells": {"test_system": "HDF cells", "experiment": "Cell cycle analysis, PI staining flow cytometry", "experimental": "Figure 4 (A) SRB and Trypan blue cell viability assays performed in cells treated with or without Shikimic acid (5, 10, 25 and 50 mM) for 24h. (B) Apoptosis detection using the Annexin V-FITC/PI double staining followed by flow cytometry in non-irradiated and non-treated cells, irradiated and non-treated cells and irradiated cells treated with Shikimic acid (10, 25 and 50 mM). (C) Representation and statistical analysis of the percentage of apoptotic cells in each of the conditions analyzed. (D) Cell cycle analysis using PI staining followed by flow cytometry. (E) Relative p16^INK4a mRNA levels monitored by qPCR in the indicated conditions. Student T-test, *p<0.05. (F) Immunofluorescence of γH2AX in non-irradiated and non-treated cells, irradiated and non-treated cells and irradiated cells treated with Shikimic acid (10, 25 and 50 mM). (G) Principal component analysis (PCA) on Savitzky–Golay second derivatized spectra in the fingerprint region (1800–950 cm−1) for non-irradiated cells (No UVB), irradiated non-treated cells (UVB), irradiated cells treated with Shikimic acid 25 mM (UVB SA) and irradiated cells treated with Shikimic acid 25 mM plus EX-527 1 μM (UVB SA+EX-527). Student T-test, *p<0.05, **p<0.01, ***p<0.001. (H) Beta-sheet to alpha-helix ratio obtained by curve-fitting analysis of the amide I band (1700-1600 cm-1).\nFluorescence-activated cell sorting (FACS) analyses of the cell cycle and apoptosis were carried out using, respectively, a Propidium Iodide Flow Cytometry Kit (Abcam, UK), and an Annexin V-FITC Apoptosis Staining/Detection Kit (Abcam, UK), following the manufacturer’s instructions.\nSenescence induction by UVB irradiation For the non-irradiation control conditions, HDF were plated at a density of 6×10^4 cells/plate in 6-well\nHDF were plated at a density of 6×10^4 cells/plate in 6- plates. After 24h, culture medium was removed and well plates. After 24h, culture medium was removed replaced by fresh cell culture medium containing the and replaced with fresh cell culture medium containing compounds at different concentrations. […]"}, "[1]": {"test_system": "H3K9ac (the target of SIRT1, SIRT2 and SIRT6)", "experiment": "Sirtuin activity assay in HDF: H3K9ac levels (Western blot);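 note: screen looked for decreased acetylation as a sign of sirtuin activation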", "details": "HDF treated 24h", "experimental": "Figure 1 (A) Schematic representation of the compound testing for sirtuin activity evaluation in HDF. Cells were treated with or without the compounds for 24h and harvested for analysis. […] (C) Western Blot analysis and (D) quantification of H4K16ac and H3K9ac levels in cells treated with Resveratrol or Shikimic acid at the indicated concentrations. H4K16 and H3K9 levels were normalized to H4 and H3 levels respectively. Student T-test, *p<0.05, **p<0.01, ***p<0.001.\nHDFs were plated in 100x20 mm2 cell culture plates and after 24h, fresh cell culture medium containing the compounds was added. After 24h, cells were detached with cell scrapers, harvested, and processed for qPCR or western blot.\nProtein levels were analyzed as previously described. Cells were directly lysed in 1x Laemmli Buffer (Bio-Rad, USA), incubated at 95° C and centrifuged. Supernatant was subjected to SDS-polyacrylamide gel electrophoresis, and successive steps were performed as described. The list of antibodies used is included in Supplementary Table 2."}}, "data": [{"smiles": "O=C(O)C1=C[C@@H](O)[C@@H](O)[C@H](O)C1", "note": "[Shikimic acid]", "values": [{"measurement": "IL-6 mRNA levels", "setting": "IL-6", "result": "induced a reduction in the levels of expression of the inflammatory cytokine IL-6"}, {"measurement": "frequency of polyploidies", "setting": "HDF cells; UVB irradiation", "result": "did not alter the accumulation of DNA damage or the frequency of polyploidies"}, {"measurement": "cells in S-phase", "setting": "HDF cells; UVB-irradiated HDF", "result": "progressive increase in the number of cells in S-phase"}, {"measurement": "cell cycle", "setting": "HDF cells; absence of UVB irradiation", "result": "did not alter the cell cycle"}, {"measurement": "effect on H3K9ac levels", "setting": "[1]", "result": "induced a similar effect on both targets"}]}]}
